# From patent publication US20260240923A1, “COMPOSITION COMPRISING BIFIDOBACTERIUM ANIMALIS SUBSP. LACTIS STRAIN AND 2’-FUCOSYLLACTOSE” (Chr. Hansen A/S, priority 2023, published 2026)
# System: human PBMCs
# Test: Cytokine secretion from human PBMCs, homeostatic and Poly (I:C) challenged conditions (Example 6)
# Type: cell-based
# Settings: homeostatic (unchallenged) conditions, 20 hrs; bacteria grown on 2′FL; 2′FL 2%
substance,measurement,value
2′-Fucosyllactose [2′FL],IFN-γ secretion,did not induce secretion
same,IL-10 secretion,did not induce secretion
